The results in this text go back to patent US10730874B2 (Shire Human Genetic Therapies, Inc., priority 2018, dated 2020).

human activated kallikrein enzyme (plasma kallikrein), sequence (P03952 391-638): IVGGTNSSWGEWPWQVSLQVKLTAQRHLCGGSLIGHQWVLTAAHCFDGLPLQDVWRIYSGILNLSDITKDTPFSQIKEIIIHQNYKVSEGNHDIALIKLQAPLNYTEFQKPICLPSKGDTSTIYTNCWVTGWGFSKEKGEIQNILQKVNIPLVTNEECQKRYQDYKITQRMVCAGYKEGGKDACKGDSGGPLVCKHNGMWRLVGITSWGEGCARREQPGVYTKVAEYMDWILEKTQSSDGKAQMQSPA
human activated kallikrein enzyme (plasma kallikrein), sequence (P03952 20-390 partner): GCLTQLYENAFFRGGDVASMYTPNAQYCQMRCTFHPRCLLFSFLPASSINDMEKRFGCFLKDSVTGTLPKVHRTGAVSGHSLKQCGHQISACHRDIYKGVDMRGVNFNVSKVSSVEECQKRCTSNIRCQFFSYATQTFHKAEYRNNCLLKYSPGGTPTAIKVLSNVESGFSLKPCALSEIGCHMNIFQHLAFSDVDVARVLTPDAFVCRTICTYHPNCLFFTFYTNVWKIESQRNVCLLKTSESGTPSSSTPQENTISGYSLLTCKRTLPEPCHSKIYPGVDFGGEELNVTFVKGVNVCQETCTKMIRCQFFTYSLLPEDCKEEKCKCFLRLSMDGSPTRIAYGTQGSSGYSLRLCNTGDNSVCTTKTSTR

This test has as its target human activated kallikrein enzyme (plasma kallikrein) (Homo sapiens (Human), UniProt P03952). Put plainly: Inhibition of human activated plasma kallikrein, fluorogenic peptide substrate assay, 500 pM enzyme format. It is filed as biochemical. Particulars: 500 pM activated kallikrein enzyme, 300 uM Pro-Phe-Arg-7-amido-4-methylcoumarin substrate, 30 min preincubation, 10 min at RT; read-out: Primary Dose Response Assay: Average EC50. The method, boiled down:
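Buffer 20 mM Tris pH 7.5, EDTA, NaCl, PEG-400, Triton X-100; 300 uM Pro-Phe-Arg-AMC; enzyme–inhibitor preincubation 30 min RT. Format one: 500 pM kallikrein, 10 min RT reaction; format two: 5 pM kallikrein, 18 h RT reaction. Fluorescence read at 460 nm (380 nm excitation).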
The term EC50 denotes the midpoint of the concentration-response curve. Turning to `O=C(NCc1ncn2ccc(Cl)cc12)c1noc(Cc2cn3cc(C4CC4)ccc3n2)n1` [Example I-177, N-((7-chloroimidazo[1,5-a]pyridin-1-yl)methyl)-5-((6-cyclopropylimidazo[1,2-a]pyridin-2-yl)methyl)-1,2,4-oxadiazole-3-carboxamide], the EC50 lay within 1 to 10 nM.

In the case of `O=C(NCc1ncn2ccc(Cl)c(F)c12)c1cn(Cc2nc3cc(C4CC4)ccn3n2)nn1` [Example I-178, N-((7-chloro-8-fluoroimidazo[1,5-a]pyridin-1-yl)methyl)-1-((7-cyclopropyl-[1,2,4]triazolo[1,5-a]pyridin-2-yl)methyl)-1H-1,2,3-triazole-4-carboxamide], the 50% effective concentration (EC50) was 10 to 100 nM.

On to `O=C(NCc1ncn2ccc(Cl)c(F)c12)c1cn(Cc2cn3cc(C4CC4)cc(-n4cnnn4)c3n2)nn1` [Example I-179, N-((7-chloro-8-fluoroimidazo[1,5-a]pyridin-1-yl)methyl)-1-((6-cyclopropyl-8-(1H-tetrazol-1-yl)imidazo[1,2-a]pyridin-2-yl)methyl)-1H-1,2,3-triazole-4-carboxamide], for which the concentration giving a half-maximal response (EC50) is below 1 nM.

Regarding `O=C(NCc1ncn2ccc(Cl)c(F)c12)c1cn(Cc2cn3cc(C4CC4)cc(-n4cnnc4)c3n2)nn1` [Example I-180, N-((7-chloro-8-fluoroimidazo[1,5-a]pyridin-1-yl)methyl)-1-((6-cyclopropyl-8-(4H-1,2,4-triazol-4-yl)imidazo[1,2-a]pyridin-2-yl)methyl)-1H-1,2,3-triazole-4-carboxamide], the EC50 was below 1 nM.

As for `O=C(NCc1ncn2ccc(Cl)c(F)c12)c1cn(Cc2cn3cc(C4CC4)cc(CO)c3n2)nn1` [Example I-181, N-((7-chloro-8-fluoroimidazo[1,5-a]pyridin-1-yl)methyl)-1-((6-cyclopropyl-8-(hydroxymethyl)imidazo[1,2-a]pyridin-2-yl)methyl)-1H-1,2,3-triazole-4-carboxamide], the EC50 was below 1 nM.

As for `O=Cc1cc(C2CC2)cn2cc(Cn3cc(C(=O)NCc4ncn5ccc(Cl)c(F)c45)nn3)nc12` [Example I-182, N-((7-chloro-8-fluoroimidazo[1,5-a]pyridin-1-yl)methyl)-1-((6-cyclopropyl-8-formylimidazo[1,2-a]pyridin-2-yl)methyl)-1H-1,2,3-triazole-4-carboxamide], the EC50 was below 1 nM.

Consider `NC(=O)CCc1cc(C2CC2)cn2cc(Cn3cc(C(=O)NCc4ncn5ccc(Cl)cc45)nn3)nc12` [Example I-183, 1-((8-(3-amino-3-oxopropyl)-6-cyclopropylimidazo[1,2-a]pyridin-2-yl)methyl)-N-((7-chloroimidazo[1,5-a]pyridin-1-yl)methyl)-1H-1,2,3-triazole-4-carboxamide], for which the 50% effective concentration (EC50) was below 1 nM.

As for `N#CCCc1cc(C2CC2)cn2cc(Cn3cc(C(=O)NCc4ncn5ccc(Cl)cc45)nn3)nc12` [Example I-184, N-((7-chloroimidazo[1,5-a]pyridin-1-yl)methyl)-1-((8-(2-cyanoethyl)-6-cyclopropylimidazo[1,2-a]pyridin-2-yl)methyl)-1H-1,2,3-triazole-4-carboxamide], the EC50 is below 1 nM.

As to `O=C(NCc1ncn2ccc(Cl)c(F)c12)c1cn(Cc2cn3cc(C4CC4)cc(C(F)(F)F)c3n2)nn1` [Example I-185, N-((7-chloro-8-fluoroimidazo[1,5-a]pyridin-1-yl)methyl)-1-((6-cyclopropyl-8-(trifluoromethyl)imidazo[1,2-a]pyridin-2-yl)methyl)-1H-1,2,3-triazole-4-carboxamide], the concentration for a half-maximal effect (EC50) was below 1 nM.

As for `O=C(NCc1ncn2ccc(Cl)c(F)c12)c1cn(Cc2cn3cc(C4CC4)cc(CC4COC4)c3n2)nn1` [Example I-186, N-((7-chloro-8-fluoroimidazo[1,5-a]pyridin-1-yl)methyl)-1-((6-cyclopropyl-8-(oxetan-3-ylmethyl)imidazo[1,2-a]pyridin-2-yl)methyl)-1H-1,2,3-triazole-4-carboxamide], the 50% effective concentration (EC50) is below 1 nM.

With `O=C(NCc1ncn2ccc(Cl)c(F)c12)c1cn(Cc2cn3cc(Cl)cc(C4COC4)c3n2)nn1` [Example I-187, 1-((6-chloro-8-(oxetan-3-yl)imidazo[1,2-a]pyridin-2-yl)methyl)-N-((7-chloro-8-fluoroimidazo[1,5-a]pyridin-1-yl)methyl)-1H-1,2,3-triazole-4-carboxamide], the EC50 is below 1 nM.

As to `O=C(NCc1ncn2ccc(Cl)c(F)c12)c1cn(Cc2cn3cc(Cl)c(Cl)cc3n2)nn1` [Example I-188, N-((7-chloro-8-fluoroimidazo[1,5-a]pyridin-1-yl)methyl)-1-((6,7-dichloroimidazo[1,2-a]pyridin-2-yl)methyl)-1H-1,2,3-triazole-4-carboxamide], the EC50 lay within 1 to 10 nM.

With `O=C(NCc1ncn2ccc(Cl)c(F)c12)c1cn(Cc2cc3cc(C4CC4)cnc3s2)nn1` [Example I-189, N-((7-chloro-8-fluoroimidazo[1,5-a]pyridin-1-yl)methyl)-1-((5-cyclopropylthieno[2,3-b]pyridin-2-yl)methyl)-1H-1,2,3-triazole-4-carboxamide], the EC50 is below 1 nM.

For the compound `O=C(NCc1ncn2ccc(Cl)cc12)c1nc(Cc2cn3cc(C4CC4)ccc3n2)no1` [Example I-190, N-((7-chloroimidazo[1,5-a]pyridin-1-yl)methyl)-3-((6-cyclopropylimidazo[1,2-a]pyridin-2-yl)methyl)-1,2,4-oxadiazole-5-carboxamide], the 50% effective concentration (EC50) is below 1 nM.

Regarding `O=C(NCc1ncn2ccc(Cl)c(F)c12)c1cn(Cc2cc3cc(C4CC4)ccc3o2)nn1` [Example I-191, N-((7-chloro-8-fluoroimidazo[1,5-a]pyridin-1-yl)methyl)-1-((5-cyclopropylbenzofuran-2-yl)methyl)-1H-1,2,3-triazole-4-carboxamide], the EC50 was in the range of 1 to 10 nM.

In the case of `O=C(NCc1ncn2ccc(Cl)c(F)c12)c1cn(Cc2cn3cc(C4CC4)cc(C(F)F)c3n2)nn1` [Example I-192, N-((7-chloro-8-fluoroimidazo[1,5-a]pyridin-1-yl)methyl)-1-((6-cyclopropyl-8-(difluoromethyl)imidazo[1,2-a]pyridin-2-yl)methyl)-1H-1,2,3-triazole-4-carboxamide], the EC50 was below 1 nM.

Consider `O=C(O)c1cnn(Cc2cc(C3CC3)cn3cc(Cn4cc(C(=O)NCc5ncn6ccc(Cl)c(F)c56)nn4)nc23)c1` [Example I-193, 1-((2-((4-(((7-chloro-8-fluoroimidazo[1,5-a]pyridin-1-yl)methyl)carbamoyl)-1H-1,2,3-triazol-1-yl)methyl)-6-cyclopropylimidazo[1,2-a]pyridin-8-yl)methyl)-1H-pyrazole-4-carboxylic acid], for which the EC50 was below 1 nM.

In the case of `O=C(NCc1ncn2ccc(Cl)cc12)c1cn(Cc2cn3cc(C4CC4)cc(CCc4nnn[nH]4)c3n2)nn1` [Example I-194, 1-((8-(2-(1H-tetrazol-5-yl)ethyl)-6-cyclopropylimidazo[1,2-a]pyridin-2-yl)methyl)-N-((7-chloroimidazo[1,5-a]pyridin-1-yl)methyl)-1H-1,2,3-triazole-4-carboxamide], the half-maximal effective concentration (EC50) is below 1 nM.

`COC(=O)c1c(Cn2cc(C(=O)NCc3ncn4ccc(Cl)c(F)c34)nn2)[nH]c2cc(C3CC3)ccc12` [Example I-195, methyl 2-((4-(((7-chloro-8-fluoroimidazo[1,5-a]pyridin-1-yl)methyl)carbamoyl)-1H-1,2,3-triazol-1-yl)methyl)-6-cyclopropyl-1H-indole-3-carboxylate]: the EC50 was in the range of 100 to 2000 nM.

As for `O=C(NCc1ncn2ccc(Cl)c(F)c12)c1coc(Cc2cn3cc(C4CC4)ccc3n2)n1` [Example I-196, N-((7-chloro-8-fluoroimidazo[1,5-a]pyridin-1-yl)methyl)-2-((6-cyclopropylimidazo[1,2-a]pyridin-2-yl)methyl)oxazole-4-carboxamide], the concentration giving a half-maximal response (EC50) fell in the range of 1 to 10 nM.

Turning to `O=C(NCc1ncn2ccc(Cl)c(F)c12)c1cn(Cc2cc3ccc(Cl)cc3o2)nn1` [Example I-197, N-((7-chloro-8-fluoroimidazo[1,5-a]pyridin-1-yl)methyl)-1-((6-chlorobenzofuran-2-yl)methyl)-1H-1,2,3-triazole-4-carboxamide], the EC50 was in the range of 100 to 2000 nM.

Take `CC(c1cn2cc(C3CC3)ccc2n1)n1cc(C(=O)NCc2ncn3ccc(Cl)c(F)c23)nn1` (stereo not shown) [Example I-198, N-((7-chloro-8-fluoroimidazo[1,5-a]pyridin-1-yl)methyl)-1-(1-(6-cyclopropylimidazo[1,2-a]pyridin-2-yl)ethyl)-1H-1,2,3-triazole-4-carboxamide]: the EC50 is below 1 nM.

`O=C(NCc1ncn2ccc(Cl)c(F)c12)c1cn(Cc2cn3cc(C4CC4)cc(C4CCOC4=O)c3n2)nn1` (stereo not shown) [Example I-199, N-((7-chloro-8-fluoroimidazo[1,5-a]pyridin-1-yl)methyl)-1-((6-cyclopropyl-8-(2-oxotetrahydrofuran-3-yl)imidazo[1,2-a]pyridin-2-yl)methyl)-1H-1,2,3-triazole-4-carboxamide]: the EC50 was below 1 nM.

In the case of `O=C(NCc1ncn2ccc(Br)c(F)c12)c1cn(Cc2cn3cc(C4CC4)cc(F)c3n2)nn1` [Example I-200, N-((7-bromo-8-fluoroimidazo[1,5-a]pyridin-1-yl)methyl)-1-((6-cyclopropyl-8-fluoroimidazo[1,2-a]pyridin-2-yl)methyl)-1H-1,2,3-triazole-4-carboxamide], the EC50 is below 1 nM.

On to `O=C(NCc1ncn2ccc(Cl)c(F)c12)c1cn(Cc2cn3cc(C4CC4)cc(Cn4cccn4)c3n2)nn1` [Example I-201, 1-((8-((1H-pyrazol-1-yl)methyl)-6-cyclopropylimidazo[1,2-a]pyridin-2-yl)methyl)-N-((7-chloro-8-fluoroimidazo[1,5-a]pyridin-1-yl)methyl)-1H-1,2,3-triazole-4-carboxamide], for which the 50% effective concentration (EC50) was below 1 nM.
